According to PubChem BioAssay (NCI):
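In this assay, cells in 96-well plates receive the compound at five concentrations for 48 hours. Endpoints are linearly interpolated between the surrounding concentrations. At the GI50, growth is halved. TGI is the concentration that stops growth completely.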

Each compound was assayed on A498 renal (assay: DTP human tumour cell line panel, 48 h).
`CNCCn1c(=O)c2cc(OC)c(OC)cc2c2cnc3cc4c(cc3c21)OCO4` was tested, and the GI50 was 0.0194 µM and the TGI was 0.135 µM. In the case of `O=C(CCN1CCOCC1)Nc1cccc(-n2cc(-c3ccncc3)c(-c3ccc(Cl)c(O)c3)n2)c1`, the GI50 is reported as 1.52 µM and the TGI is reported as 5.48 µM. `C=C(C)[C@@H]1CC[C@]2(C)[C@H](CC[C@@H]3[C@@H]([C@@](C)(O)CCC=C(C)C)CC[C@]32C)[C@@]1(C)CCC(=O)O` was tested, and the GI50 was 29.5 µM and the TGI was > 100 µM. In the case of `Cn1cc(S(=O)(=O)N2CCC3=Cc4c(cnn4-c4ccc(F)cc4)C[C@]3(C(=O)c3cc(C(F)(F)F)ccn3)C2)cn1`, the GI50 is reported as 4.64 µM and the TGI is reported as > 100 µM. `c1ccc(NCCSc2nc3ccccc3s2)cc1` was tested, and the TGI was > 100 µM. In the case of `Oc1ccc(Oc2cnc3ccccc3n2)cc1`, the GI50 is reported as 37.2 µM and the TGI is reported as > 100 µM. In the case of `Cc1ccc2occ/c(=N\Nc3ccccc3)c2c1`, the TGI is reported as > 100 µM. In the case of `CC(=O)NC1CONC1=O` (stereo unspecified), the TGI is reported as > 100 µM. For `Oc1ccc(N=Nc2nccs2)c(O)c1`, the GI50 was 18.8 µM and the TGI was 40.5 µM. For `COc1ccc2c(c1)C(C)Cc1c(ncnc1-n1cnc3ccccc31)N2C` (stereo unspecified), the GI50 was 0.234 µM and the TGI was 10.2 µM. Work on `COc1ccc(-c2noc(N)c2-c2cc(OC)c3c(c2)OCO3)cc1` yielded a GI50 of 1.24 µM and a TGI of 7.55 µM. `CC(Cl)CN1c2ccccc2Sc2ccc(Cl)cc21` (stereo unspecified) was tested, and the TGI was > 10 µM. `NCCCn1c2c(c3ccccc3c1=O)C(=O)c1ccccc1-2` was tested, and the GI50 was 0.0481 µM and the TGI was 0.919 µM. Work on `O=C1c2ccccc2C(=O)c2c(NCCN=Cc3ccccc3O)cccc21` yielded a GI50 of 1.87 µM and a TGI of 6.67 µM. In the case of `Oc1ccc(/C=C/c2cc(O)cc3c2C(c2cc(O)cc(O)c2)C(c2ccc(O)c(O)c2)O3)cc1` (stereo unspecified), the TGI is reported as > 100 µM. With `CC1(C)N=C(N)N=C(N)N1c1cccc(OCCOc2cccc([N+](=O)[O-])c2)c1` the GI50 was > 67.7 µM and the TGI was > 100 µM. For `COc1ccc(/C=C/c2cnccn2)cc1OC`, the TGI was > 10 µM. `O=C(NC1CCCCC1)c1ccc(Nc2ncnc3c2cnn3-c2ccccc2)cc1` was tested, and the GI50 was 3.83 µM and the TGI was 39.4 µM. Compound `N#CC(C#N)=C1CCCOc2c1ccc1ccccc21` has a GI50 of 1.84 µM and a TGI of 4.89 µM. In the case of `O=[N+]([O-])c1ccc(Sc2c3ccccc3nc3ccccc23)cn1`, the TGI is reported as > 100 µM. For `COc1cc2c3c(n(CCCN(C)CCO)c(=O)c2cc1OC)-c1cc2c(cc1C3=O)OCO2`, the GI50 was 8.19 µM and the TGI was > 40.2 µM. With `C=CCn1c(SCC(=O)Nc2ccc(C(=O)/C=C/c3cc(OC)c(OC)c(OC)c3)cc2)nnc1-c1ccc(OC)cc1` the GI50 was 1.5 µM and the TGI was 2.91 µM. In the case of `N#Cc1c(-c2ccco2)cc(-c2ccc(N)cc2)[nH]c1=O`, the TGI is reported as > 100 µM. For `COc1cc(C(=O)O[C@H](C(N)=O)[C@]2(C)CO2)c2cccc(C)c2c1`, the GI50 was 4.31 µM and the TGI was 15.4 µM. With `COc1ccc(-c2ccc(NNC(=O)c3ccc(F)cc3)nn2)cc1OC` the GI50 was > 100 µM and the TGI was > 100 µM. Work on `Cc1sc2c(c1C)C(c1ccc(Cl)cc1)=N[C@@H](CC(=O)Nc1ccc(OCCOCCOCCOCCNc3cccc4c3C(=O)N(C3CCC(=O)NC3=O)C4=O)cc1)c1nnc(C)n1-2` (stereo partly specified) yielded a GI50 of 0.013 µM and a TGI of 0.0962 µM. With `COc1cc(/C=C/C(=O)C(C(=O)/C=C/c2ccc(OC(=O)CCNC34CC5CC(CC(C5)C3)C4)c(OC)c2)C(=O)CCNC23CC4CC(CC(C4)C2)C3)ccc1OC(=O)CCNC12CC3CC(CC(C3)C1)C2` (stereo unspecified) the GI50 was 3.47 µM and the TGI was 13.6 µM. With `CC(=O)[CH-]C(=O)c1ccccc1.CC(=O)[CH-]C(=O)c1ccccc1.O=S(=O)([O-])c1cc([O-])c2c([O-])cc(S(=O)(=O)[O-])cc2c1.[Na+].[Ti+4]` the GI50 was > 100 µM and the TGI was > 100 µM. `Cc1cc(NCCCCNc2ccnc3cc(Cl)ccc23)nc(Nc2ccc(C(=O)N3CCCCC3)cc2)n1` gave a GI50 of 1.61 µM and a TGI of 3.72 µM. With `Cc1c2c(C(N)=O)nccc2c(C)c2c1c1ccccc1n2Cc1ccccc1` the TGI was 46 µM.

The compounds below were run on HOP-62 NSCLC (assay: DTP human tumour cell line panel, 48 h).
Compound `COc1ccc(-c2nn(-c3cccc(Cl)c3)cc2-c2nc(N)[nH]c(=O)c2C#N)cc1` has a GI50 of 10.1 µM and a TGI of 26.2 µM. For `COC(=O)C(=O)CC(=O)c1cccc(OC)c1`, the TGI was > 100 µM. In the case of `COc1cc2c3c(n(CCCN(CCO)CCO)c(=O)c2cc1OC)-c1cc2c(cc1C3=O)OCO2`, the GI50 is reported as < 0.01 µM. For `CNCCn1c(=O)c2cc(OC)c(OC)cc2c2cnc3cc4c(cc3c21)OCO4`, the GI50 was < 0.01 µM and the TGI was 1.61 µM. With `O=C(CCN1CCOCC1)Nc1cccc(-n2cc(-c3ccncc3)c(-c3ccc(Cl)c(O)c3)n2)c1` the GI50 was 2.23 µM and the TGI was 13.5 µM. In the case of `C=C(C)[C@@H]1CC[C@]2(C)[C@H](CC[C@@H]3[C@@H]([C@@](C)(O)CCC=C(C)C)CC[C@]32C)[C@@]1(C)CCC(=O)O`, the GI50 is reported as 18.6 µM and the TGI is reported as 45.3 µM. In the case of `Cn1cc(S(=O)(=O)N2CCC3=Cc4c(cnn4-c4ccc(F)cc4)C[C@]3(C(=O)c3cc(C(F)(F)F)ccn3)C2)cn1`, the GI50 is reported as 43 µM and the TGI is reported as > 100 µM. In the case of `c1ccc(NCCSc2nc3ccccc3s2)cc1`, the TGI is reported as > 100 µM. `Oc1ccc(Oc2cnc3ccccc3n2)cc1` was tested, and the GI50 was > 100 µM and the TGI was > 100 µM. In the case of `Cc1ccc2occ/c(=N\Nc3ccccc3)c2c1`, the TGI is reported as > 100 µM. For `CC(=O)NC1CONC1=O` (stereo unspecified), the TGI was > 100 µM. Compound `Oc1ccc(N=Nc2nccs2)c(O)c1` has a GI50 of 19.9 µM and a TGI of 49.8 µM. `COc1ccc2c(c1)C(C)Cc1c(ncnc1-n1cnc3ccccc31)N2C` (stereo unspecified) gave a GI50 of 0.638 µM and a TGI of 25 µM. For `COc1ccc(-c2noc(N)c2-c2cc(OC)c3c(c2)OCO3)cc1`, the GI50 was 3.19 µM and the TGI was > 100 µM. With `CC(Cl)CN1c2ccccc2Sc2ccc(Cl)cc21` (stereo unspecified) the TGI was > 10 µM. `NCCCn1c2c(c3ccccc3c1=O)C(=O)c1ccccc1-2` gave a GI50 of 0.0875 µM and a TGI of 0.64 µM. `O=C1c2ccccc2C(=O)c2c(NCCN=Cc3ccccc3O)cccc21` was tested, and the GI50 was 6.61 µM and the TGI was 52.3 µM. In the case of `Oc1ccc(/C=C/c2cc(O)cc3c2C(c2cc(O)cc(O)c2)C(c2ccc(O)c(O)c2)O3)cc1` (stereo unspecified), the TGI is reported as > 100 µM. In the case of `CC1(C)N=C(N)N=C(N)N1c1cccc(OCCOc2cccc([N+](=O)[O-])c2)c1`, the GI50 is reported as 31.2 µM and the TGI is reported as > 100 µM. For `COc1ccc(/C=C/c2cnccn2)cc1OC`, the TGI was > 10 µM. Work on `O=C(NC1CCCCC1)c1ccc(Nc2ncnc3c2cnn3-c2ccccc2)cc1` yielded a GI50 of 2.62 µM and a TGI of 8.77 µM. `N#CC(C#N)=C1CCCOc2c1ccc1ccccc21` was tested, and the GI50 was 79.5 µM and the TGI was > 100 µM. In the case of `CCc1nc(Cl)c(Cl)c(Cl)n1`, the TGI is reported as > 100 µM. For `O=[N+]([O-])c1ccc(Sc2c3ccccc3nc3ccccc23)cn1`, the TGI was > 65.7 µM. For `COc1cc2c3c(n(CCCN(C)CCO)c(=O)c2cc1OC)-c1cc2c(cc1C3=O)OCO2`, the GI50 was 1.17 µM and the TGI was > 100 µM. Work on `C=CCn1c(SCC(=O)Nc2ccc(C(=O)/C=C/c3cc(OC)c(OC)c(OC)c3)cc2)nnc1-c1ccc(OC)cc1` yielded a GI50 of 0.691 µM and a TGI of 1.75 µM. `N#Cc1c(-c2ccco2)cc(-c2ccc(N)cc2)[nH]c1=O` was tested, and the TGI was > 100 µM. For `C=C1C(O)C2C(=C(C)C13CC3)C(=O)C(C)(C)C2OC` (stereo unspecified), the GI50 was > 100 µM and the TGI was > 100 µM. `COc1cc(C(=O)O[C@H](C(N)=O)[C@]2(C)CO2)c2cccc(C)c2c1` showed a GI50 of 2.23 µM and a TGI of 5.35 µM. `COc1ccc(-c2ccc(NNC(=O)c3ccc(F)cc3)nn2)cc1OC` was tested, and the GI50 was 91.7 µM and the TGI was > 100 µM. With `Cc1sc2c(c1C)C(c1ccc(Cl)cc1)=N[C@@H](CC(=O)Nc1ccc(OCCOCCOCCOCCNc3cccc4c3C(=O)N(C3CCC(=O)NC3=O)C4=O)cc1)c1nnc(C)n1-2` (stereo partly specified) the GI50 was < 0.01 µM and the TGI was > 100 µM. With `COc1cc(/C=C/C(=O)C(C(=O)/C=C/c2ccc(OC(=O)CCNC34CC5CC(CC(C5)C3)C4)c(OC)c2)C(=O)CCNC23CC4CC(CC(C4)C2)C3)ccc1OC(=O)CCNC12CC3CC(CC(C3)C1)C2` (stereo unspecified) the GI50 was 9.12 µM and the TGI was > 100 µM. In the case of `CC(=O)[CH-]C(=O)c1ccccc1.CC(=O)[CH-]C(=O)c1ccccc1.O=S(=O)([O-])c1cc([O-])c2c([O-])cc(S(=O)(=O)[O-])cc2c1.[Na+].[Ti+4]`, the GI50 is reported as > 100 µM and the TGI is reported as > 100 µM. For `Cc1cc(NCCCCNc2ccnc3cc(Cl)ccc23)nc(Nc2ccc(C(=O)N3CCCCC3)cc2)n1`, the GI50 was 2.09 µM and the TGI was 4.2 µM. `Cc1c2c(C(N)=O)nccc2c(C)c2c1c1ccccc1n2Cc1ccccc1` gave a TGI of 19.3 µM.

What follows are compounds tested on UO-31 renal (assay: DTP human tumour cell line panel, 48 h).
`COc1ccc(-c2nn(-c3cccc(Cl)c3)cc2-c2nc(N)[nH]c(=O)c2C#N)cc1` showed a GI50 of 2.94 µM and a TGI of 47.8 µM.
